Laboratory results as given in patent US6806230B1, “Pyrimidine derivatives and herbicides containing them” (Kumiai Chemical Industry Co., Ltd., priority 1999, dated 2004).

Experiments:
Assay type in all cases: in vivo
barnyard grass (Eo) = experiment: Test Example 1: herbicidal effects by flooded paddy field treatment; parameters: herbicidal effects, Eo (barnyard grass):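 0-5 growth inhibition grade; 5 = over 90%; 4 = 70-90%; 3 = 50-70%; 2 = 30-50%; 1 = 10-30%; 0 = under 10%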; settings: dose 100 g active ingredient per 10 ares, examined on the 21st day after treatment, standards of Table 44
Summary of the method: (§1)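 Seeds sown in puddled paddy soil and flooded to 3 cm. Next day, a water-diluted wettable powder was dripped onto the water surface at 100 g active ingredient per 10 ares. Plants were grown in a greenhouse, and herbicidal effect was scored against a rating standard 21 days after treatment.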

monochoria (Mo) = experiment: as above; parameters: herbicidal effects, Mo (monochoria):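 0-5 growth inhibition grade; 5 = over 90%; 4 = 70-90%; 3 = 50-70%; 2 = 30-50%; 1 = 10-30%; 0 = under 10%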; settings: dose 100 g active ingredient per 10 ares, examined on the 21st day after treatment, standards of Table 44
Summary of the method: as §1

barnyard grass (Ec) [1] = experiment: Test Example 2: herbicidal effects by upland soil treatment; parameters: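 0-5 growth inhibition grade; 5 = over 90%; 4 = 70-90%; 3 = 50-70%; 2 = 30-50%; 1 = 10-30%; 0 = under 10%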; settings: dose 100 g active ingredient per 10 ares, examined on the 21st day after treatment
Summary of the method: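 Pre-emergence test: barnyard grass and green foxtail sown in upland soil, then soil surface sprayed with wettable-powder formulation at 100 g active ingredient per 10 ares (100 l per 10 ares). Grown in greenhouse; herbicidal effect scored on a rating scale 21 days after treatment.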

barnyard grass (Ec) [2] = experiment: Test Example 3: herbicidal effects by foliage treatment in upland field; parameters: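 0-5 growth inhibition grade; 5 = over 90%; 4 = 70-90%; 3 = 50-70%; 2 = 30-50%; 1 = 10-30%; 0 = under 10%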; settings: dose 100 g active ingredient per 10 ares, examined on the 14th day after treatment
Protocol: In a 80 cm^2 plastic pot, upland soil was filled, and seeds of barnyard grass (Ec) and green foxtail (Se) were sown and cultured in a green house for 2 weeks. Then, a wettable powder prepared in accordance with Formulation Example 1 was diluted with water and applied to the entire foliage from above the plants by means of a small size spray at a rate of 100 l per 10 ares so that the dose of the active ingredient would be 100 g per 10 ares. Thereafter, cultivation was carried out in a green house, and on the 14th day after the treatment, the herbicidal effects were examined in accordance with the standards of Table 44.

Compound	herbicidal effects, Eo (barnyard grass) (barnyard grass (Eo))	herbicidal effects, Mo (monochoria) (monochoria (Mo))	Ec (herbicidal effects, index) (barnyard grass (Ec) [1])	Ec (herbicidal effects, index) (barnyard grass (Ec) [2])
CCCc1ncncc1C(C(C)C)N(C)C(=O)Cc1ccc(Cl)cc1 (racemic) [1-447]	5	5	5	5
CC(C)C(c1cncnc1C(F)(F)F)N(C)C(=O)N(C)c1ccccc1F (racemic) [1-536]	5	5	5	4
CCC(C)C(c1cncnc1C(F)(F)F)N(C)C(=O)Cc1cccs1 (mixture of isomers) [2-11]	5	5	5	5
C#CCN(C(=O)Cc1ccc(Cl)cc1)C(c1cncnc1CC)C(C)C (racemic) [1-560]	5	5	5	4
COc1ccccc1C(c1cncnc1C(F)(F)F)N(C)C(=O)Cc1ccccc1 (racemic) [1-488]	5	5	5	5
CCc1ncncc1C(C(C)C)N(C)C(=O)N(C)c1ccc(F)cc1 (racemic) [1-539]	5	5	5	4
CC(C)c1ncncc1C(C(C)C)N(C)C(=O)N(C)c1ccc(Cl)cc1 (racemic) [1-430]	5	5	5	4
CCCc1ncncc1C(C(C)C)N(C)C(=O)Cc1ccccc1 (racemic) [1-445]	5	5	5	5
Cc1ccc(N(C)C(=O)N(C)C(c2cncnc2C(F)(F)F)C(C)C)cc1 (racemic) [1-428]	5	5	5	4
Cc1ccc(N(C)C(=O)N(C)C(c2cncnc2C(C)C)C(C)C)cc1 (racemic) [1-431]	5	5	5	4
CC(C(=O)N(C)C(c1cncnc1C(F)(F)F)C(C)C)c1ccc(Br)s1 (mixture of isomers) [2-61]	5	5	5	4
CCc1ncncc1C(C(C)C)N(C)C(=O)Cc1ccc(Cl)cc1 (racemic) [1-434]	5	5	5	4
CCCC(c1cncnc1C(C)C)N(C)C(=O)Cc1ccc(F)cc1 (racemic) [1-450]	5	5	5	4
CCc1ncncc1C(C(C)C)N(C)C(=O)N(C)c1ccccc1 (racemic) [1-538]	5	5	5	4
CON=CC(c1cncnc1C(C)C)N(C)C(=O)Cc1ccc(Cl)cc1 (racemic) [1-464]	5	5	5	4
CC(C)c1ncncc1C(C(C)C)N(C)C(=O)Cc1cccc(F)c1 (racemic) [Compound 1-270]	5	5	5	4
CC(C(=O)N(C)C(c1cncnc1C(F)(F)F)C(C)C)c1cccs1 (mixture of isomers) [2-62]	5	5	5	4
CC(C)c1ncncc1C(C(C)C)N(C)C(=O)Cc1cccs1 (racemic) [2-23]	5	5	5	4
CC(=O)c1ncncc1C(C(C)C)N(C)C(=O)Cc1ccccc1 (racemic) [1-526]	5	5	5	5

Compound	herbicidal effects, Eo (barnyard grass) (barnyard grass (Eo))	herbicidal effects, Mo (monochoria) (monochoria (Mo))	Ec (herbicidal effects, index) (barnyard grass (Ec) [1])	Ec (herbicidal effects, index) (barnyard grass (Ec) [2])
COc1ncncc1C(C(C)C)N(C)C(=O)Cc1ccc(Cl)cc1 (racemic) [1-403]	5	5	5	4
CN(C(=O)Cc1ccc(Cl)cc1)C(c1cncnc1C(F)(F)F)C1(C)CC1 (racemic) [1-411]	5	5	5	4
CC(C)C(c1cncnc1C(F)(F)F)N(C)C(=O)N(C)c1ccc(F)cc1F (racemic) [1-537]	5	5	5	4
COCc1ncncc1C(C(C)C)N(C)C(=O)Cc1ccc(Cl)cc1 (racemic) [1-589]	5	5	5	4
CC(C)C(c1cncnc1C(F)(F)F)N(CC#N)C(=O)Cc1ccc(Cl)cc1 (racemic) [1-482]	5	5	5	5
CON=C(C)C(c1cncnc1C(C)C)N(C)C(=O)Cc1ccc(F)cc1 (racemic) [1-563]	5	5	5	5
CON(C(=O)Cc1ccc(Cl)cc1)C(c1cncnc1C(F)(F)F)C(C)C (racemic) [1-407]	5	5	5	4
CN(C(=O)Cc1ccccc1)C(c1ccccc1F)c1cncnc1C(F)(F)F (racemic) [1-546]	5	5	5	4
CC(C)C(c1cncnc1C(F)(F)F)N(C)C(=O)COc1cc(C(F)(F)F)nn1C (racemic) [2-46]	5	5	5	4
CCC(c1cncnc1C(C)(C)C)N(C)C(=O)Cc1ccc(F)cc1 (racemic) [1-571]	5	4	5	4
CC(C)C(c1cncnc1C(F)(F)F)N(C)C(=O)N(C)c1ccc(Cl)cc1 (racemic) [1-427]	5	5	5	4
CCCC(c1cncnc1C(C)C)N(C)C(=O)Cc1ccc(Cl)cc1 (racemic) [1-451]	5	5	5	4
CC(C)CC(c1cncnc1C(F)(F)F)N(C)C(=O)Cc1cccs1 (racemic) [2-51]	5	5	5	4
COc1ncncc1C(C(C)C)N(C)C(=O)Cc1ccc(F)cc1 (racemic) [1-402]	5	5	5	5
Cc1ccc(CC(=O)N(C)C(CC(C)C)c2cncnc2C(F)(F)F)s1 (racemic) [2-53]	5	5	5	4
CN(C(=O)Cc1ccc(F)cc1)C(c1cncnc1C(F)(F)F)C1(C)CC1 (racemic) [1-410]	5	5	5	4
CC(C)CC(c1cncnc1C(F)(F)F)N(C)C(=O)Cc1ccc(F)cc1 (racemic) [1-331]	5	5	5	4
CCCc1ncncc1C(C(C)C)N(C)C(=O)Cc1ccc(F)cc1 (racemic) [1-446]	5	5	5	5
